Data: US8236826B2, “Diarylether derivatives as antitumor agents” (Otsuka Pharmaceutical Co., Ltd., priority 2005, dated 2012)
Where a name gives a salt, the structure may show the parent alone.

Row | Structure (SMILES) | melting point
1 | Cc1cc(N(C)CC(=O)N2CCN(Cc3ccoc3)CC2)ccc1Oc1ccc(NC(=O)c2ccc(C(F)(F)F)cc2)cn1 (as salt: hydrochloride) [Example 792] | 158.5 to 161 °C
2 | Cc1cc(N(C)CC(=O)N2CCN(Cc3ccc4c(c3)OCO4)CC2)ccc1Oc1ccc(NC(=O)c2ccc(Cl)c(Cl)c2)cn1 (as salt: hydrochloride) [Example 1512] | 183 to 185 °C (dec.)
3 | O=C(Nc1ccc(Oc2ccc(C3CCN(C(=O)CN4CCOCC4)CC3)cc2)cc1)c1ccc(Cl)c(Cl)c1 (as salt: hydrochloride) [Example 2571] | 146 to 150 °C
4 | CCN(CC(=O)N1CCN(Cc2ccccc2)CC1)c1ccc(Oc2ccc(NC(=O)c3ccc(C(F)(F)F)cc3)cn2)c(C)c1 (as salt: maleate) [Example 1513] | 165 to 167 °C
5 | O=C(Nc1ccc(Oc2ccc(C(=O)N3CCOCC3)cc2)cc1)c1ccc(Cl)c(Cl)c1 [Example 10] | 189 to 192 °C
6 | O=C(Nc1ccc(Oc2ccc(C(=O)N3CCOCC3)cc2)c(F)c1)c1ccc(Cl)c(Cl)c1 [Example 11] | 203 to 204 °C
7 | O=C(Nc1ccc(Oc2ccc(C(=O)N3CCN(c4ccccn4)CC3)cc2)nc1)c1ccc(C(F)(F)F)cc1 [Example 176] | 222 to 224 °C
8 | CC(C)(C)OC(=O)N1CCN(C(=O)CCc2ccc(Oc3ccc(NC(=O)c4ccc(Cl)c(Cl)c4)cc3F)cc2)CC1 [Example 464] | 155 to 157 °C
9 | O=C(Nc1ccc(Oc2ccc(CCC(=O)N3CCN(c4cccnc4)CC3)cc2)cc1)c1ccc(Cl)c(Cl)c1 [Example 466] | 153 to 155 °C
10 | O=C(Nc1ccc(Oc2ccc(CCC(=O)N3CCN(c4cccnc4)CC3)cc2)c(F)c1)c1ccc(Cl)c(Cl)c1 [Example 467] | 183 to 185 °C
11 | Cc1cc(N(C)CC(=O)N2CCN(Cc3ccoc3)CC2)ccc1Oc1ccc(NC(=O)c2ccc(Cl)c(Cl)c2)cn1 [Example 718] | 116.5 to 118 °C
12 | CC(=O)N(CC(=O)N1CCN(Cc2ccc3c(c2)OCO3)CC1)c1ccc(Oc2ccc(NC(=O)c3ccc(Cl)c(Cl)c3)cn2)c(C)c1 [Example 725] | 216 to 217 °C
13 | CCN(CC(=O)N1CCN(Cc2ccc3c(c2)OCO3)CC1)c1ccc(Oc2ccc(NC(=O)c3ccc(Cl)c(Cl)c3)cn2)c(F)c1 [Example 728] | 149 to 151 °C
14 | CN(CC(=O)N1CCN(Cc2ccc3c(c2)OCO3)CC1)c1ccc(Oc2ccc(NC(=O)c3ccc(Cl)c(Cl)c3)cn2)c(F)c1 [Example 729] | 199 to 201 °C
15 | CC(=O)N(CC(=O)N1CCN(Cc2ccc3c(c2)OCO3)CC1)c1ccc(Oc2ccc(NC(=O)c3ccc(Cl)c(Cl)c3)cn2)c(F)c1 [Example 730] | 233 to 235 °C
16 | CC(=O)N(CC(=O)N1CCN(Cc2ccccc2)CC1)c1ccc(Oc2ccc(NC(=O)c3ccc(C(F)(F)F)cc3)cn2)cc1 [Example 771] | 161 to 162 °C
17 | CCN(CC(=O)N1CCN(Cc2ccc3c(c2)OCO3)CC1)c1ccc(Oc2ccc(NC(=O)c3ccc(C(F)(F)F)cc3)cn2)cc1 [Example 774] | 178 to 180 °C
18 | CCN(CC(=O)N1CCN(Cc2ccc3c(c2)OCO3)CC1)c1ccc(Oc2ccc(NC(=O)c3ccc(C(F)(F)F)cc3)cn2)c(F)c1 [Example 775] | 170 to 172 °C
19 | CN(CC(=O)N1CCN(Cc2ccc3c(c2)OCO3)CC1)c1ccc(Oc2ccc(NC(=O)c3ccc(C(F)(F)F)cc3)cn2)c(F)c1 [Example 776] | 220 to 221 °C
20 | CCN(CC(=O)N1CCN(Cc2ccoc2)CC1)c1ccc(Oc2ccc(NC(=O)c3ccc(C(F)(F)F)cc3)cn2)c(OC)c1 [Example 784] | 174 to 176 °C
21 | COc1cc(N(C)CC(=O)N2CCN(Cc3ccoc3)CC2)ccc1Oc1ccc(NC(=O)c2ccc(C(F)(F)F)cc2)cn1 [Example 785] | 160 to 164 °C
22 | Br.CN(CC(=O)N1CCN(Cc2ccc3c(c2)OCO3)CC1)c1cc(F)c(Oc2ccc(C(=O)Nc3ccc(C(F)(F)F)cc3)cn2)cc1F [Example 1037, 6-(4-{[2-(4-Piperonylpiperazin-1-yl)-2-oxoethyl]methylamino}-2,5-difluorophenoxy)-N-(4-trifluoromethylphenyl)nicotinamide hydrobromide] | 224.5 to 226 °C
23 | O=C(Nc1ccc(Oc2ccc(N3CCN(Cc4ccccc4)C3=O)cc2)nc1)c1ccc(C(F)(F)F)cc1 [Example 1181] | 203 to 204 °C
24 | O=C(Nc1ccc(Oc2ccc(N3CCN(Cc4ccccc4)C3=O)cc2)nc1)c1ccc(Cl)c(Cl)c1 [Example 1182] | 186 to 187 °C

Row | Structure (SMILES) | melting point
25 | Cc1cc(N2CCCN(Cc3ccc4c(c3)OCO4)C2=O)ccc1Oc1ccc(NC(=O)c2ccc(C(F)(F)F)cc2)cn1 [Example 1183] | 165 to 166 °C
26 | Cc1cc(N2CCCN(Cc3ccc4c(c3)OCO4)C2=O)ccc1Oc1ccc(NC(=O)c2ccc(Cl)c(Cl)c2)cn1 [Example 1184] | 122 to 124 °C
27 | COc1ccc(CN2CCCN(c3ccc(Oc4ccc(NC(=O)c5ccc(C(F)(F)F)cc5)cn4)c(C)c3)C2=O)cc1OC [Example 1185] | 155 to 157 °C
28 | Cc1cc(N2CCCN(CC(=O)N3CCN(Cc4ccc5c(c4)OCO5)CC3)C2=O)ccc1Oc1ccc(NC(=O)c2ccc(C(F)(F)F)cc2)cn1 [Example 1186] | 182 to 183.5 °C
29 | COc1ccc(CN2CCCN(c3ccc(Oc4ccc(NC(=O)c5ccc(Cl)c(Cl)c5)cn4)c(C)c3)C2=O)cc1OC [Example 1187] | 117 to 118 °C
30 | CCOC(=O)c1ccc(N2CCCN(c3ccc(Oc4ccc(NC(=O)c5ccc(C(F)(F)F)cc5)cn4)c(C)c3)C2=O)cc1 [Example 1188] | 160 to 161 °C
31 | Cc1cc(N2CCN(Cc3ccc4c(c3)OCO4)C2=O)ccc1Oc1ccc(NC(=O)c2ccc(C(F)(F)F)cc2)cn1 [Example 1504, N-{6-[2-methyl-4-(2-oxo-3-piperonylimidazolidin-1-yl)phenoxy]pyridin-3-yl}-4-trifluoromethylbenzamide] | 188 to 189 °C
32 | CCN(CC(=O)N1CCN(Cc2ccccc2)CC1)c1ccc(Oc2ccc(NC(=O)c3ccc(Cl)c(Cl)c3)cn2)c(C)c1 [Example 1514] | 102 to 105 °C
33 | Cc1cc(N(C)CC(=O)N2CCN(Cc3ccccc3)CC2)ccc1Oc1ccc(NC(=O)c2ccc(C(F)(F)F)cc2)cn1 [Example 1515] | 110 to 111 °C
34 | Cc1cc(N(C)CC(=O)N2CCN(Cc3ccccc3)CC2)ccc1Oc1ccc(NC(=O)c2ccc(Cl)c(Cl)c2)cn1 [Example 1516] | 111 to 113 °C
35 | CN(CC(=O)N1CCN(Cc2ccc3c(c2)OCO3)CC1)c1ccc(Oc2ccc(NS(=O)(=O)c3ccc(Cl)c(Cl)c3)cn2)c(F)c1 [Example 1615, 3,4-dichloro-N-[6-(2-fluoro-4-{methyl[2-oxo-2-(4-piperonylpiperazin-1-yl)ethyl]amino}phenoxy)pyridin-3-yl]benzenesulfonamide] | 185.6 to 187 °C
36 | O=C(Nc1ccc(Oc2ccc(N3CCN(S(=O)(=O)c4ccccc4)CC3)cc2)cc1)c1ccc(Cl)c(Cl)c1 [Example 2031, N-{4-[4-(4-benzenesulfonylpiperazin-1-yl)phenoxy]phenyl}-3,4-dichlorobenzamide] | 191 to 192 °C
37 | O=C(Nc1ccc(Oc2ccc(N3CCN(C(=O)COc4ccccc4)CC3)cc2)cc1)c1ccc(Cl)c(Cl)c1 [Example 2052] | 171 to 173 °C
38 | O=C(Nc1ccc(Oc2ccc(N3CCN(C(=O)COc4ccc5c(c4)OCO5)CC3)cc2)cc1)c1ccc(Cl)c(Cl)c1 [Example 2053] | 116 to 118 °C
39 | Cc1cc(N(C)CC(=O)N2CCN(C(=O)c3ccc4c(c3)OCO4)CC2)ccc1Oc1ccc(NC(=O)c2ccc(Cl)c(Cl)c2)cn1 [Example 2054] | 133 to 135 °C
40 | CC(=O)N(c1ccc(CCC(=O)N2CCN(Cc3ccc4c(c3)OCO4)CC2)cc1)c1ccc(NC(=O)c2ccc(Cl)c(Cl)c2)cn1 [Example 2099, N-[6-(Acetyl{4-[3-oxo-3-(4-piperonylpiperazin-1-yl)propyl]phenyl}amino)pyridin-3-yl]-3,4-dichlorobenzamide] | 150 to 165 °C
41 | O=C(Nc1ccc(Oc2ccc(C3=CCN(CCCn4ccnc4)CC3)cc2)cc1)c1ccc(Cl)c(Cl)c1 [Example 2486, 3,4-Dichloro-N-(4-{4-[1-(3-imidazole-1-ylpropyl)-1,2,3,6-tetrahydropyridine-4-yl]phenoxy}phenyl)-benzamide] | 169 to 171 °C
42 | O=C(Nc1ccc(Oc2ccc(N3CCN(C(=O)CN4CCOCC4)CC3)cc2)cc1)c1ccc(Cl)c(Cl)c1 [Example 2559] | 177 to 178 °C
43 | O=C(CN1CCOCC1)c1ccc(Oc2ccc(NC(=O)c3ccc(Cl)c(Cl)c3)cc2F)cc1 [Example 2563] | 177 to 178 °C
44 | O=C(Nc1ccc(Oc2ccc(C3=CCN(C(=O)CN4CCOCC4)CC3)cc2)cc1)c1ccc(Cl)c(Cl)c1 [Example 2565] | 195 to 197 °C
45 | CN(C(=O)CN1CCOCC1)C1CCN(c2ccc(Oc3ccc(NC(=O)c4ccc(Cl)c(Cl)c4)cc3)cc2)CC1 [Example 2572] | 157 to 160 °C
46 | Cc1cc(N2CCC(CC(=O)N3CCN(Cc4ccc5c(c4)OCO5)CC3)CC2)ccc1Oc1ccc(NS(=O)(=O)c2ccc(C(F)(F)F)cc2)cn1 [Example 2703, N-[6-(4-{4-[2-(4-piperonylpiperazin-1-yl)-2-oxoethyl]piperidin-1-yl}-2-methylphenoxy)pyridin-3-yl]-4-trifluoromethylbenzenesulfonamide] | 156 to 158 °C
47 | O=C(C1CCN(c2ccc(Oc3ccc(NS(=O)(=O)c4ccc(Cl)c(Cl)c4)cn3)cc2)CC1)N1CCN(Cc2ccccc2)CC1 [Example 2710, N-(6-{4-[4-(4-benzylpiperazine-1-carbonyl)piperidin-1-yl]phenoxy}pyridin-3-yl)-3,4-dichlorobenzenesulfonamide] | 185 to 189 °C
48 | Cc1cc(N(C)CC(=O)N2CCN(Cc3ccc4c(c3)OCO4)CC2)ccc1Oc1ccc(NC(=O)c2ccc(-n3cccc3)cc2)cn1 [Example 2711, N-[6-(4-{[2-(4-piperonylpiperazin-1-yl)-2-oxoethyl]methylamino}-2-methylphenoxy)pyridin-3-yl]-4-pyrrole-1-ylbenzamide] | 163.1 to 166.5 °C
